Data taken from patent US20030045515A1, “Combination medicament for treatment of neoplastic diseases” (priority 2001, published 2003).

What was measured:
Format in all cases: in vivo, NMRI nu/nu female mice
[1] = tested on: NYH cells (small cell lung cancer); test: Tumour growth in nude mice inoculated with NYH cells; conditions: NYH tumours, 14 days
Description: (§1) The experiments were conducted with NMRI nu/nu female mice (M&B, Ry, Denmark) kept under semi-sterile conditions. The mice were 6 weeks old on arrival, and they were allowed to acclimatise for approximately 3 weeks before the experiments were initiated. The bedding was autoclaved at 121° C. for 20 minutes, the food was sterilised by irradiation, and the drinking water was filtered through a 0.2 μm filter. All handling of the mice was done in laminar flow benches.
Each experiment employed 40-60 mice which were inoculated in both flanks and left for the tumours to develop. Following that, the mice were divided into groups, each containing 10 mice and thus 18-20 tumors, according to the size of the tumour, i.e. large, medium or small. Unless stated otherwise all doses have been given daily.
(§2) The tumours were measured using digital callipers before treatment start (=baseline), twice weekly for the duration of the study, and at the end of the study. Tumour area (A) was calculated as the product of the two measured perpendicular diameters; A=d1×d2. For mice with only one tumour, the area of this tumour was calculated and used in the statistical analysis. For mice with two tumours, the average of the two tumour areas was calculated and used in the statistical analysis.
For each animal, an individual curve of the tumour areas observed during the study was plotted against time. The trend was an increasing growth rate of the tumours. In order to ensure an approximate linear correspondence between tumour data and time, the observations were transformed by taking the square root of the tumour areas, corresponding to tumour size in one dimension. As a summary measure of the repeated measurements of tumour areas during the study (tumour growth rate), the estimated slope of the individual curves of the square root transformed curves was used [Matthews, Br. Med. J., 300, 230-235, 1990]. The slope should be interpreted as a measure of the tumour growth rate and was estimated using linear regression analysis by time on the observations during the study. Within each group, the mean of the tumour growth rate was calculated.
The NYH cell line originates from a patient with small cell lung cancer. The cell line was obtained from Rigshospitalet, Copenhagen, Denmark.
The mice were inoculated with 1×10^7 NYH cells in 0.2 ml in each flank, and the tumours were left to grow for approximately 4 days. The duration of the dosing was 14 days.

[2] = tested on: HT 1080 cells (human fibrosarcoma); test: Tumour growth in nude mice inoculated with HT 1080 cells; conditions: HT 1080 tumours, 14 days
Description: The experiments were conducted with NMRI nu/nu female mice (M&B, Ry, Denmark) kept under semi-sterile conditions. The mice were 6 weeks old on arrival, and they were allowed to acclimatise for approximately 3 weeks before the experiments were initiated. The bedding was autoclaved at 121° C. for 20 minutes, the food was sterilised by irradiation, and the drinking water was filtered through a 0.2 μm filter. All handling of the mice was done in laminar flow benches. Each experiment employed 40-60 mice which were inoculated in both flanks and left for the tumours to develop. Following that, the mice were divided into groups, each containing 10 mice and thus 18-20 tumors, according to the size of the tumour, i.e. large, medium or small. Unless stated otherwise all doses have been given daily. The tumours were measured using digital callipers before treatment start (=baseline), twice weekly for the duration of the study, and at the end of the study. Tumour area (A) was calculated as the product of the two measured perpendicular diameters; […] For mice with only one tumour, the area of this tumour was calculated and used in the statistical analysis. For mice with two tumours, the average of the two tumour areas was calculated and used in the statistical analysis. For each animal, an individual curve of the tumour areas observed during the study was plotted against time. The trend was an increasing growth rate of the tumours. In order to ensure an approximate linear correspondence between tumour data and time, the observations were transformed by taking the square root of the tumour areas, corresponding to tumour size in one dimension. As a summary measure of the repeated measurements of tumour areas during the study (tumour growth rate), the estimated slope of the individual curves of the square root transformed curves was used [Matthews, Br. Med. […] The slope should be interpreted as a measure of the tumour growth rate and was estimated using linear regression analysis by time on the observations during the study. Within each group, the mean of the tumour growth rate was calculated. The HT 1080 cell line originates from a patient with human fibrosarcoma, and it was obtained from ATCC. The mice were inoculated with 2×10^6 HT 1080 cells in 0.2 ml in each flank, and the tumours were left to grow for approximately 4 days.

[3] = tested on: Colo 320 DM cells (human colon cancer); test: Tumour growth in nude mice inoculated with Colo 320 DM cells; conditions: Colo 320 DM tumours, 21 days, control 0.55
Description: as §1
Each experiment employed 40-60 mice which were inoculated in both flanks and left for the tumours to develop. Following that, the mice were divided into groups, each containing 10 mice and thus 18-20 tumors, according to the size of the tumour, i.e. large, medium or small. […]
as §2
For each animal, an individual curve of the tumour areas observed during the study was plotted against time. […] Within each group, the mean of the tumour growth rate was calculated. […]

Work on `N.N.[Cl][Pt][Cl]` [Cisplatin] yielded a Mean increment/day ([1]; cisplatin 5 mg/kg i.p. once weekly, control 0.90) of 0.32 mm/day.
With `N#CNC(=Nc1ccncc1)NCCCCCCOc1ccc(Cl)cc1` [Compound A, N-cyano-N′-(6-(4-chlorophenoxy)hexyl)-N″(4-pyridyl)guanidine] the Mean increment/day ([2]; compound A 50 mg/kg p.o. daily, TNP-470 experiment, control 0.73) was 0.14 mm/day, the Mean increment/day ([2]; compound A 50 mg/kg p.o. daily, etoposide experiment, control 0.45) was 0.21 mm/day and the Mean increment/day ([2]; compound A 50 mg/kg p.o. daily, paclitaxel experiment, control 0.67) was 0.30 mm/day. The Mean increment/day ([2]; compound A 50 mg/kg p.o. daily, seocalcitol experiment, control 0.98) was 0.24 mm/day, the Mean increment/day ([1]; compound A 15 mg/kg p.o. daily, cisplatin experiment, control 0.90) was 0.02 mm/day and the Mean increment/day ([1]; compound A 15 mg/kg p.o. daily, cyclophosphamide experiment, control 0.61) was 0.26 mm/day. It also gave a Mean increment/day ([1]; compound A 15 mg/kg p.o. daily, etoposide experiment, control 0.67) of 0.34 mm/day and a Mean increment/day ([3]; compound A 50 mg/kg p.o. daily) of 0.22 mm/day.
`O=P1(N(CCCl)CCCl)NCCCO1` (centres unmarked) [Cyclophosphamide] was tested, and the Mean increment/day ([1]; cyclophosphamide 7 mg/kg p.o. daily, control 0.61) was 0.40 mm/day.
Work on `COc1cc([C@@H]2c3cc4c(cc3[C@@H](O[C@@H]3O[C@@H]5CO[C@@H](C)O[C@H]5[C@H](O)[C@H]3O)[C@H]3COC(=O)[C@H]23)OCO4)cc(OC)c1O` [Etoposide] yielded a Mean increment/day ([2]; etoposide 10 mg/kg p.o. daily, control 0.45) of -0.01 mm/day and a Mean increment/day ([1]; etoposide 10 mg/kg p.o. daily, control 0.67) of 0.41 mm/day.
`CC(=O)O[C@H]1C(=O)[C@@]2(C)[C@H]([C@H](OC(=O)c3ccccc3)[C@]3(O)C[C@H](OC(=O)[C@H](O)[C@@H](NC(=O)c4ccccc4)c4ccccc4)C(C)=C1C3(C)C)[C@]1(OC(C)=O)CO[C@@H]1C[C@@H]2O` [Paclitaxel] was tested, and the Mean increment/day ([2]; paclitaxel 1 mg/kg s.c. daily, control 0.67) was 0.39 mm/day and the Mean increment/day ([2]; paclitaxel 2 mg/kg s.c. daily, control 0.67) was 0.15 mm/day.
Molecule `C=C1/C(=C\C=C2/CCC[C@]3(C)[C@@H]([C@H](C)/C=C/C=C/C(O)(CC)CC)CC[C@@H]23)C[C@@H](O)C[C@@H]1O` [Seocalcitol] has a Mean increment/day ([2]; seocalcitol 2 μg/kg p.o. daily, control 0.98) of 0.95 mm/day.
Molecule `CO[C@@H]1[C@H](OC(=O)NC(=O)CCl)CC[C@]2(CO2)[C@H]1[C@@]1(C)O[C@@H]1CC=C(C)C` [TNP-470] has a Mean increment/day ([2]; TNP-470 9 mg/kg s.c. daily, control 0.73) of 0.51 mm/day and a Mean increment/day ([3]; TNP-470 9 mg/kg s.c. daily) of 0.29 mm/day.
